Test system: 233499-124-R-J3-PDC spheroids with HUVEC/MSC, viability
Assay: Anticancer human tumor 233499-124-R-J3-PDC patient-derived colon adenocarcinoma cell line growth inhibition [PI3K]
Details: for viability, T/C: stronger effect = lower value
Procedure, shortened: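 Viability of mixed-cell spheroids was determined after exposure to pairwise combinations, one partner being inavolisib, alpelisib, duvelisib or copanlisib. Highest tested concentration matched clinical Cmax where known and 10 microM where not, descending in half-log steps.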
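Note: spheroids exposed to agents for seven days before readout.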
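Throughout, for viability, T/C: percent viability relative to DMSO vehicle control taken as 100%.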

CC(=O)c1c(C)c2cnc(Nc3ccc(N4CCNCC4)cn3)nc2n(C2CCCC2)c1=O + CC(Nc1ncnc2nc[nH]c12)c1cc2cccc(Cl)c2c(=O)n1-c1ccccc1
IC50 (curve of first compound, second compound 0.0316 µM): > 100 nM | IC50 (curve of first compound, second compound 0.1 µM): > 100 nM | IC50 (curve of first compound, second compound 0.316 µM): > 100 nM | IC50 (curve of first compound, second compound 1 µM): > 100 nM | IC50 (curve of first compound, second compound 3.16 µM): > 100 nM | IC50 (curve of first compound, second compound 10 µM): > 100 nM | viability, T/C (second compound 0.0316 µM, first compound 0.000316 µM): 99% | viability, T/C (second compound 0.0316 µM, first compound 0.001 µM): 83.9% | viability, T/C (second compound 0.0316 µM, first compound 0.00316 µM): 93.1% | viability, T/C (second compound 0.0316 µM, first compound 0.01 µM): 99.5% | viability, T/C (second compound 0.0316 µM, first compound 0.0316 µM): 101% | viability, T/C (second compound 0.0316 µM, first compound 0.1 µM): 89% | viability, T/C (second compound 0.1 µM, first compound 0.000316 µM): 92.7% | viability, T/C (second compound 0.1 µM, first compound 0.001 µM): 99.2% | viability, T/C (second compound 0.1 µM, first compound 0.00316 µM): 93.9% | viability, T/C (second compound 0.1 µM, first compound 0.01 µM): 115% | viability, T/C (second compound 0.1 µM, first compound 0.0316 µM): 101% | viability, T/C (second compound 0.1 µM, first compound 0.1 µM): 82.6% | viability, T/C (second compound 0.316 µM, first compound 0.000316 µM): 102% | viability, T/C (second compound 0.316 µM, first compound 0.001 µM): 91.2% | viability, T/C (second compound 0.316 µM, first compound 0.00316 µM): 93% | viability, T/C (second compound 0.316 µM, first compound 0.01 µM): 92.2% | viability, T/C (second compound 0.316 µM, first compound 0.0316 µM): 86% | viability, T/C (second compound 0.316 µM, first compound 0.1 µM): 77.2% | viability, T/C (second compound 1 µM, first compound 0.000316 µM): 100% | viability, T/C (second compound 1 µM, first compound 0.001 µM): 86.9% | viability, T/C (second compound 1 µM, first compound 0.00316 µM): 78.1% | viability, T/C (second compound 1 µM, first compound 0.01 µM): 71.5% | viability, T/C (second compound 1 µM, first compound 0.0316 µM): 76.1% | viability, T/C (second compound 1 µM, first compound 0.1 µM): 81.8% | viability, T/C (second compound 3.16 µM, first compound 0.000316 µM): 106% | viability, T/C (second compound 3.16 µM, first compound 0.001 µM): 105% | viability, T/C (second compound 3.16 µM, first compound 0.00316 µM): 94.2% | viability, T/C (second compound 3.16 µM, first compound 0.01 µM): 83.8% | viability, T/C (second compound 3.16 µM, first compound 0.0316 µM): 77.2% | viability, T/C (second compound 3.16 µM, first compound 0.1 µM): 53.4% | viability, T/C (second compound 10 µM, first compound 0.000316 µM): 86.3% | viability, T/C (second compound 10 µM, first compound 0.001 µM): 103% | viability, T/C (second compound 10 µM, first compound 0.00316 µM): 92.9% | viability, T/C (second compound 10 µM, first compound 0.01 µM): 86.2% | viability, T/C (second compound 10 µM, first compound 0.0316 µM): 82.4% | viability, T/C (second compound 10 µM, first compound 0.1 µM): 68.7%

CCCS(=O)(=O)Nc1ccc(F)c(C(=O)c2c[nH]c3ncc(-c4ccc(Cl)cc4)cc23)c1F
viability, T/C (compound 0.1 µM): 97.4% [middle of 4 runs] | viability, T/C (compound 0.316 µM): 97.2% [middle of 4 runs] | viability, T/C (compound 1 µM): 100% [middle of 4 runs] | viability, T/C (compound 10 µM): 2.53% [middle of 4 runs] | IC50 (curve of compound): 5.22 µM [middle of 4 runs]

From PubChem BioAssay AID1963984 (Molecular Pharmacology Branch, DTP, NCI, 2024)
